These results are taken from patent publication US9289429B2, “Compounds and methods for inhibiting phosphate transport” (Ardelyx, Inc., priority 2010, dated 2016).

One data set concerns the target T1, rat NaP2b (SLC34A2) (Rattus norvegicus, UniProt Q9JJ09).
T1 construct: host or cells: HEK293
T1 sequence (Q9JJ09 1-695): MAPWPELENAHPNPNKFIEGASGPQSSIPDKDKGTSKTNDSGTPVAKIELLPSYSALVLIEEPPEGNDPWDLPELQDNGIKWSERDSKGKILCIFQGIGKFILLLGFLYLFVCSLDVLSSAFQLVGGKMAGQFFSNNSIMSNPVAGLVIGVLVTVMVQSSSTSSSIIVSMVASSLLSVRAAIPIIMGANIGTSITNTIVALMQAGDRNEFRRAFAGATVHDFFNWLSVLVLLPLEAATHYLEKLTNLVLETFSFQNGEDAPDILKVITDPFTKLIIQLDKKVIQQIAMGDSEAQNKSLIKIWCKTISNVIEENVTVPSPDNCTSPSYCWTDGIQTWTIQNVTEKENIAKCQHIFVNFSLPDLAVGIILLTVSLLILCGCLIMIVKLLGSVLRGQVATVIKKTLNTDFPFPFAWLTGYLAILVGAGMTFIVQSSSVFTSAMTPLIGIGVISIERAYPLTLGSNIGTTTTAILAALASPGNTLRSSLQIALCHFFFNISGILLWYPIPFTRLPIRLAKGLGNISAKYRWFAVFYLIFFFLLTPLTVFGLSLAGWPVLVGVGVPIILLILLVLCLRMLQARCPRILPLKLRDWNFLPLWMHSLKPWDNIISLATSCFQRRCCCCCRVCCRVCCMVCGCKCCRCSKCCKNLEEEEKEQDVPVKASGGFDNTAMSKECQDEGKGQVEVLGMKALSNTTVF
The data set can be described thus: NaP2b-mediated Pi transport (33P uptake) in transfected HEK293 cells, rat transporter. As to conditions: HEK293 cells transfected with rat NaP2b, 33P phosphate uptake, 100 uM KH2PO4; read-out: pIC50 range for rat Nap2b (converted). In kind it is cell-based. The method, then: (§1) HEK293 cells were obtained from the American Type Culture collection and propagated per their instructions. Expression clones for rat and human NaP2b (SLC34A2) were obtained from Open Biosystems (Catalog numbers MRN1768-9510282, and MHS1010-99823026, respectively). The sequence of the human protein was mutated to insert a threonine after residue 37, and to introduce a N39D mutation.
(§2) The rate of phosphate (Pi) uptake into HEK293 cells was measured using a modification of the method described by Mohrmann et al. (Mohrmann, I., Mohrmann, M., Biber, J., and Murer, H. (1986) Am. J. Phys. 250(3 Pt 1):G323-30.) Transfected HEK293 cells were treated with a pharmacological agent to minimize endogenous PiT-mediated phosphate transport activity, such that the only remaining sodium-dependent phosphate transport activity is that which was bestowed by introduction of the NaP2b genes.
(§3) Cells were seeded into 96-well plates at 25,000 cells/well and cultured overnight. Lipofectamine 2000 (Invitrogen) was used to introduce the NaP2b cDNA, and the cells were allowed to approach confluence during a second overnight incubation. […] Cells were then overlayed with either choline uptake buffer or sodium uptake buffer (14 mM Tris, 137 mM sodium chloride, 5.4 mM KCl, 2.8 mM CaCl2, 1.2 mM MgSO4, 100 uM KH2PO4, PiT-silencing agent, 1 mg/mL Bovine Serum Albumin, pH 7.4) containing 6-9 uCi/mL ^33P orthophosphoric acid (Perkin Elmer) and test compound. Each compound was tested at twelve concentrations ranging from 0.1 nM to 30 uM. Assays were run in duplicate.
(§4) After incubation for 3-30 minutes at room temperature, assay mixtures were removed, and the cells were washed twice with ice cold stop solution (137 mM sodium chloride, 14 mM Tris, pH 7.4). Cells were lysed by addition of 20 μL 0.1% Tween 80 followed by 100 μL scintillation fluid, and counted using a TopCount (Perkin Elmer).
(§5) pIC50 (the negative log of the IC50) values of the test compounds were calculated using GraphPad Prism.

In the next data set the target is T2, NaPi2b (Rattus norvegicus, UniProt Q9JJ09).
T2 construct: host or cells: HEK293
T2 sequence (Q9JJ09 1-695): T1 sequence (Q9JJ09 1-695)
Briefly: Competition with phosphate: Pi transport assay repeated at 2.1 vs 0.1 mM phosphate. In kind it is cell-based. As to conditions: potency for inhibition of NaPi2b at 2.1 vs 0.1 mM phosphate. The procedure:
To ascertain if an inhibitor was competitive for binding with phosphate, the procedure was repeated, but raising the concentration of the substrate in the assay mixture from 0.1 to 2.1 mM phosphate.

In a further data set the target is T3, human NaP2b (SLC34A2) (Homo sapiens, UniProt O95436).
T3 construct: host or cells: HEK293
T3 sequence (O95436 1-690): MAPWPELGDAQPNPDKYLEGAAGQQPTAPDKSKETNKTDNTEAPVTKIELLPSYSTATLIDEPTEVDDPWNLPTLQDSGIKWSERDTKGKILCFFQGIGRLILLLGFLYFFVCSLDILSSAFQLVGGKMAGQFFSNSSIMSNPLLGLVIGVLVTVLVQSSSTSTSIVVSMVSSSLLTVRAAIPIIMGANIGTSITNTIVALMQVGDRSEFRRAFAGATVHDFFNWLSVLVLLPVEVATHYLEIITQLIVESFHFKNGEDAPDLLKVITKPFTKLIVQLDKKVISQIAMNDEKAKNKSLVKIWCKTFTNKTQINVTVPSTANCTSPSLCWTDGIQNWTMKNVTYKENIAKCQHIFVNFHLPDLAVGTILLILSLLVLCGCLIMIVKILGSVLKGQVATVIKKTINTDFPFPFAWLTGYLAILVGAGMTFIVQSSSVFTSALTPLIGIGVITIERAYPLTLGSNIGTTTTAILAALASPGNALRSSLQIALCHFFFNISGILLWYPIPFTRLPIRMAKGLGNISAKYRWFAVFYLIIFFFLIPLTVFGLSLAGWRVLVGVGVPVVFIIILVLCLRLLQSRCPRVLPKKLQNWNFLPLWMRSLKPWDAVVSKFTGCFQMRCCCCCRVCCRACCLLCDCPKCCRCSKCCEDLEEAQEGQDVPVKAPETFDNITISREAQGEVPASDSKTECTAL
The data set can be described thus: NaP2b-mediated Pi transport (33P uptake) in transfected HEK293 cells, human transporter. Particulars: HEK293 cells transfected with human NaP2b (Thr inserted after residue 37, N39D), 33P phosphate uptake, 100 uM KH2PO4; read-out: pIC50 range for human Nap2b (converted). Type of data set: cell-based. The procedure: as §1, §2, §3, §4, §5

Data set [1] in a line: Stability in simulated gastric and intestinal fluid. In kind it is in vitro ADME. Particulars: incubation 6 hr, 1-20 μM. The method, then: Test compounds were incubated at 1-20 μM in simulated gastric fluid (SGF; standard USP solution with 3 mg/mL pepsin) or simulated intestinal fluid (SIF; standard USP solution with 3 mg/mL pancreatin) for 3 hr or 6 hr. HPLC-UV or HPLC-MS were used to determine test compound levels using peak area %. Results (Table 5) were reported as the percentage of test compound remaining after incubation in a given condition relative to test compound present at t=0 in the same condition.

Take `Cc1ccc(-c2cnc(NC(=O)c3cc(N4CCCCC4)ccc3NC(=O)c3cccc(CSCCC(=O)O)c3)cn2)cc1C` [Example 1, 3-((3-((2-((5-(3,4-Dimethylphenyl)pyrazin-2-yl)carbamoyl)-4-(piperidin-1-yl)phenyl)carbamoyl)benzyl)thio)propanoic acid]: at rat NaP2b (SLC34A2), the IC50 was 1 to 7.94 µM.

For `O=C(O)c1cccc(SCc2cccc(C(=O)Nc3ccc(N4CCCCC4)cc3C(=O)Nc3cnc(-c4ccccc4)nc3)c2)c1` [Example 3, 3-((3-((2-((2-Phenylpyrimidin-5-yl)carbamoyl)-4-(piperidin-1-yl)phenyl)carbamoyl)benzyl)thio)benzoic acid], the IC50 on rat NaP2b (SLC34A2) is 1 to 7.94 µM.

Turning to `Cc1ccc(-c2cnc(NC(=O)c3cc(N4CCCCC4)ccc3NC(=O)c3cccc(C(=O)NCCOCCO)c3)cn2)cc1C` [Example 5, N1-(2-((5-(3,4-Dimethylphenyl)pyrazin-2-yl)carbamoyl)-4-(piperidin-1-yl)phenyl)-N3-(2-(2-hydroxyethoxy)ethyl)isophthalamide], on rat NaP2b (SLC34A2), the IC50 was 10 to 31.6 µM.

As to `O=C(NCCOCCO)c1cccc(C(=O)Nc2ccc(N3CCCCC3)cc2C(=O)Nc2cnc(-c3cccc(C(F)(F)F)c3)cn2)c1` [Example 6, N1-(2-(2-Hydroxyethoxy)ethyl)-N3-(4-(piperidin-1-yl)-2-((5-(3-(trifluoromethyl)phenyl)pyrazin-2-yl)carbamoyl)phenyl)isophthalamide], on rat NaP2b (SLC34A2), the IC50 is 10 to 31.6 µM.

As for `CCN(CC)CCN(C)Cc1cccc(C(=O)Nc2ccc(N3CCCCC3)cc2C(=O)Nc2ncc(-c3ccc(C)c(C)c3)cn2)c1` [Example 7, 2-(3-(((2-(Diethylamino)ethyl)(methyl)amino)methyl)benzamido)-N-(5-(3,4-dimethylphenyl)pyrimidin-2-yl)-5-(piperidin-1-yl)benzamide], the IC50 on rat NaP2b (SLC34A2) is 1 to 7.94 µM.

Consider `O=C(NCCOCCO)c1cccc(C(=O)Nc2ccc(N3CCCCC3)cc2C(=O)Nc2ncc(-c3cccc(C(F)(F)F)c3)cn2)c1` [Example 8], for which the IC50 on rat NaP2b (SLC34A2) is 10 to 31.6 µM.

With `CCN(CC)CCN(C)Cc1cccc(C(=O)Nc2ccc(N3CCCCC3)cc2C(=O)Nc2ncc(-c3cccc(C(F)(F)F)c3)cn2)c1` [Example 9, 2-(3-(((2-(Diethylamino)ethyl)(methyl)amino)methyl)benzamido)-5-(piperidin-1-yl)-N-(5-(3-(trifluoromethyl)phenyl)pyrimidin-2-yl)benzamide], at rat NaP2b (SLC34A2), the IC50 was 10 to 31.6 µM.

On to `CN(CCN1CCOCC1)C(=O)c1cccc(C(=O)Nc2ccc(N3CCCCC3)cc2C(=O)Nc2cnc(-c3cccc(C(F)(F)F)c3)nc2)c1` [Example 10, N1-Methyl-N1-(2-morpholinoethyl)-N3-(4-(piperidin-1-yl)-2-((2-(3-(trifluoromethyl)phenyl)pyrimidin-5-yl)carbamoyl)phenyl)isophthalamide], for which the IC50 on rat NaP2b (SLC34A2) and on human NaP2b (SLC34A2) was < 1 µM in each case. For the same compound, the “Competitive with respect to Pi?” value on NaPi2b was “No”.

`Cc1ccc(-c2cnc(NC(=O)c3cc(N4CCCCC4)ccc3NC(=O)c3cccc(CSCCC(=O)O)c3)nc2)cc1C` [Example 13, 3-(3-(2-(5-(3,4-dimethylphenyl)pyrimidin-2-ylcarbamoyl)-4-(piperidin-1-yl)phenylcarbamoyl)benzylthio)propanoic acid]: the IC50 at rat NaP2b (SLC34A2) was 1 to 7.94 µM.

In the case of `O=C(O)CCSCc1cccc(C(=O)Nc2ccc(N3CCCCC3)cc2C(=O)Nc2ncc(-c3cccc(C(F)(F)F)c3)cn2)c1` [Example 14, 3-((3-((4-(Piperidin-1-yl)-2-((5-(3-(trifluoromethyl)phenyl)pyrimidin-2-yl)carbamoyl)phenyl)carbamoyl)benzyl)thio)propanoic acid], on rat NaP2b (SLC34A2), the IC50 is 10 to 31.6 µM.

Regarding `CN(CCOCCOCCOCCC(=O)O)C(=O)c1cccc(C(=O)Nc2ccc(N3CCCCC3)cc2C(=O)Nc2cnc(-c3ccccc3)nc2)c1` [Example 15, 2-Methyl-1-oxo-1-(3-((2-((2-phenylpyrimidin-5-yl)carbamoyl)-4-(piperidin-1-yl)phenyl)carbamoyl)phenyl)-5,8,11-trioxa-2-azatetradecan-14-oic acid], the “% remaining, SGF” value in data set [1] (simulated gastric fluid with 3 mg/mL pepsin) is reported as 97%. Further, in data set [1] (simulated intestinal fluid with 3 mg/mL pancreatin), the “% remaining, SIF” value is given as 98%. Moreover, the IC50 at rat NaP2b (SLC34A2) was 1 to 7.94 µM.

Consider `Cc1ccc(-c2cnc(NC(=O)c3cc(N4CCCCC4)ccc3NC(=O)c3cccc(C(=O)NCCOCCO)c3)nc2)cc1C` [Example 16, N1-(2-((5-(3,4-Dimethylphenyl)pyrimidin-2-yl)carbamoyl)-4-(piperidin-1-yl)phenyl)-N3-(2-(2-hydroxyethoxy)ethyl)isophthalamide], for which, at rat NaP2b (SLC34A2), the IC50 was 10 to 31.6 µM.

Take `O=C(O)CCOCCOCCOCCNC(=O)Cc1cccc(SCc2cccc(C(=O)Nc3ccc(N4CCCCC4)cc3C(=O)Nc3ncc(-c4ccccc4)cn3)c2)c1` [Example 17, 2-Oxo-1-(3-((3-((2-((5-phenylpyrimidin-2-yl)carbamoyl)-4-(piperidin-1-yl)phenyl)carbamoyl)benzyl)thio)phenyl)-6,9,12-trioxa-3-azapentadecan-15-oic acid]: the IC50 at rat NaP2b (SLC34A2) and on human NaP2b (SLC34A2) was 1 to 7.94 µM throughout.

Take `O=C(O)P(=O)(O)O` [PFA, reference compound]: the “Competitive with respect to Pi?” value at NaPi2b was “Yes”.
